Laboratory results: patent US20080108641A1, “Compounds for treating inflammatory disorders, demyelinating disdorders and cancers” (priority 2006, published 2008)

How the values were obtained:
IL-4 = assay: Mediator release, IL-4 (Con A-stimulated PBML, sandwich ELISA); assay type: cell-based; details: Homo sapiens
Protocol: In this experiment, test compound and/or vehicle were preincubated with human peripheral blood mononuclear leukocyte (PBML, 1×10^6/ml) in RPMI buffer pH 7.4 for 2 hours. Concanavalin A (Con A, 20 μg/ml) was then added to stimulate the cells overnight in 5% CO2 at 37° C. IL-4 and IL-10 cytokine levels in the conditioned medium were then quantified using a sandwich ELISA kit. Compounds were screened at 10, 1, 0.1, 0.01 and 0.001 μM.

[1] = system: colorectal cancer cell lines (HT29 & HCT116); assay: Microarray differential gene expression (CodeLink Human Whole Genome Bioarrays); assay type: cell-based

Which inhibition at 0.001 µM (IL-4; 1 nM, read-out: % Growth Inhibition) does the source give for `CCN(CC)CCNc1ccc2ncn3c4ccc(O)cc4c(=O)c1c23` [Symadex™] here?
Its inhibition at 0.001 µM is 8%.

What about the inhibition at 0.01 µM (IL-4; 10 nM, read-out: % Growth Inhibition) of the same compound?
The inhibition at 0.01 µM was 7%.

What about the inhibition at 0.1 µM (IL-4; 0.1 μM, read-out: % Growth Inhibition) of the same compound?
The inhibition at 0.1 µM was 2%.

And the inhibition at 1 µM (IL-4; 1 μM, read-out: % Growth Inhibition)?
The inhibition at 1 µM was -9%.

What about the inhibition at 10 µM (IL-4; 10 μM, read-out: % Growth Inhibition) of the same compound?
Its inhibition at 10 µM is 105%.

What about the IC50 (IL-4; IL-4 release) of the same compound?
The IC50 was 3.33 µM.

What about the “number of down-regulated genes significantly represented in both cell types” value ([1]; array of 55,000 gene fragment accessions, cells grown at concentration) of the same compound?
Its value is 271.

What about the “MEAN FOLD CHANGE OVER CONTROL” value ([1]; gene ACYP1) of the same compound?
The value was −2.07.

And the “MEAN FOLD CHANGE OVER CONTROL” value ([1]; gene ADCYAP1)?
Its value is −21.74.

And the “MEAN FOLD CHANGE OVER CONTROL” value ([1]; gene ADH1C)?
The value was −12.02.

What about the “MEAN FOLD CHANGE OVER CONTROL” value ([1]; gene AGT) of the same compound?
The value was −22.71.

What about the “MEAN FOLD CHANGE OVER CONTROL” value ([1]; gene ALG5) of the same compound?
Its value is −2.71.

And the “MEAN FOLD CHANGE OVER CONTROL” value ([1]; gene ANAPC4)?
The value was −1.92.

What about the “MEAN FOLD CHANGE OVER CONTROL” value ([1]; gene APOA1) of the same compound?
The value was −13.15.

What about the “MEAN FOLD CHANGE OVER CONTROL” value ([1]; gene ARL6IP) of the same compound?
The value was −2.29.

What about the “MEAN FOLD CHANGE OVER CONTROL” value ([1]; gene ASAH2) of the same compound?
The value was −2.21.

What about the “MEAN FOLD CHANGE OVER CONTROL” value ([1]; gene HAT1) of the same compound?
The value was −2.63.

What about the “MEAN FOLD CHANGE OVER CONTROL” value ([1]; gene HMGB1) of the same compound?
The value was −1.97.

And the “MEAN FOLD CHANGE OVER CONTROL” value ([1]; gene HMMR)?
The value was −2.94.

What about the “MEAN FOLD CHANGE OVER CONTROL” value ([1]; gene HNF4A) of the same compound?
The value was −7.42.

What about the “MEAN FOLD CHANGE OVER CONTROL” value ([1]; gene HNRPA2B1) of the same compound?
Its value is −1.93.

And the “MEAN FOLD CHANGE OVER CONTROL” value ([1]; gene HSGT1)?
Its value is −2.08.

And the “MEAN FOLD CHANGE OVER CONTROL” value ([1]; gene HSPB2)?
Its value is −13.76.

What about the “MEAN FOLD CHANGE OVER CONTROL” value ([1]; gene IBSP) of the same compound?
Its value is −58.56.

What about the “MEAN FOLD CHANGE OVER CONTROL” value ([1]; gene IL1RAP) of the same compound?
The value was −11.23.

And the “MEAN FOLD CHANGE OVER CONTROL” value ([1]; gene IL1RL1)?
The value was −28.60.

And the “MEAN FOLD CHANGE OVER CONTROL” value ([1]; gene IL7R)?
The value was −25.20.

And the “MEAN FOLD CHANGE OVER CONTROL” value ([1]; gene IL13RA2)?
Its value is −9.79.

And the “MEAN FOLD CHANGE OVER CONTROL” value ([1]; gene ITGA2B)?
Its value is −10.64.

And the “MEAN FOLD CHANGE OVER CONTROL” value ([1]; gene ITGA9)?
Its value is −27.91.

What about the “MEAN FOLD CHANGE OVER CONTROL” value ([1]; gene ITGAE) of the same compound?
Its value is −2.12.

What about the “MEAN FOLD CHANGE OVER CONTROL” value ([1]; gene ITGB3BP) of the same compound?
Its value is −2.73.

And the “MEAN FOLD CHANGE OVER CONTROL” value ([1]; gene ITSN1)?
The value was −15.06.

What about the “MEAN FOLD CHANGE OVER CONTROL” value ([1]; gene KCNJ12) of the same compound?
Its value is −15.93.

And the “MEAN FOLD CHANGE OVER CONTROL” value ([1]; gene KCNJ15)?
Its value is −6.83.

What about the “MEAN FOLD CHANGE OVER CONTROL” value ([1]; gene KCNQ2) of the same compound?
The value was −24.13.

And the “MEAN FOLD CHANGE OVER CONTROL” value ([1]; gene KIAA0089)?
Its value is −7.23.

And the “MEAN FOLD CHANGE OVER CONTROL” value ([1]; gene KIF2C)?
Its value is −2.52.

And the “MEAN FOLD CHANGE OVER CONTROL” value ([1]; gene KIF5A)?
Its value is −11.04.

And the “MEAN FOLD CHANGE OVER CONTROL” value ([1]; gene KLRG1)?
The value was −24.24.

And the “MEAN FOLD CHANGE OVER CONTROL” value ([1]; gene KRT13)?
Its value is −3.34.

And the “MEAN FOLD CHANGE OVER CONTROL” value ([1]; gene LCP2)?
Its value is −11.85.

And the “MEAN FOLD CHANGE OVER CONTROL” value ([1]; gene LIMS2)?
Its value is −57.61.

And the “MEAN FOLD CHANGE OVER CONTROL” value ([1]; gene LNX)?
The value was −87.48.

What about the “MEAN FOLD CHANGE OVER CONTROL” value ([1]; gene LPAAT-E (first entry)) of the same compound?
Its value is −11.94.

And the “MEAN FOLD CHANGE OVER CONTROL” value ([1]; gene LPAAT-E (second entry))?
The value was −2.40.

And the “MEAN FOLD CHANGE OVER CONTROL” value ([1]; gene LRP1B)?
The value was −15.01.

And the “MEAN FOLD CHANGE OVER CONTROL” value ([1]; gene LTB)?
The value was −12.57.

What about the “MEAN FOLD CHANGE OVER CONTROL” value ([1]; gene MAD2L1) of the same compound?
Its value is −3.14.

And the “MEAN FOLD CHANGE OVER CONTROL” value ([1]; gene MAP6)?
Its value is −12.89.

And the “MEAN FOLD CHANGE OVER CONTROL” value ([1]; gene MAPK13)?
The value was −2.14.

And the “MEAN FOLD CHANGE OVER CONTROL” value ([1]; gene MAPT)?
Its value is −26.53.

And the “MEAN FOLD CHANGE OVER CONTROL” value ([1]; gene MAZ)?
Its value is −1.89.

And the “MEAN FOLD CHANGE OVER CONTROL” value ([1]; gene MCM6)?
Its value is −1.97.

And the “MEAN FOLD CHANGE OVER CONTROL” value ([1]; gene MCM7)?
Its value is −2.69.

And the “MEAN FOLD CHANGE OVER CONTROL” value ([1]; gene MEA)?
Its value is −2.39.

And the “MEAN FOLD CHANGE OVER CONTROL” value ([1]; gene MGAT4A)?
Its value is −10.83.

And the “MEAN FOLD CHANGE OVER CONTROL” value ([1]; gene MIS12)?
Its value is −2.20.

What about the “MEAN FOLD CHANGE OVER CONTROL” value ([1]; gene MPZL1) of the same compound?
Its value is −2.04.

What about the “MEAN FOLD CHANGE OVER CONTROL” value ([1]; gene MRPL1) of the same compound?
Its value is −2.02.

And the “MEAN FOLD CHANGE OVER CONTROL” value ([1]; gene MRPL11)?
The value was −2.97.

What about the “MEAN FOLD CHANGE OVER CONTROL” value ([1]; gene MRPL13) of the same compound?
The value was −2.16.

What about the “MEAN FOLD CHANGE OVER CONTROL” value ([1]; gene MRPL23) of the same compound?
Its value is −2.29.

What about the “MEAN FOLD CHANGE OVER CONTROL” value ([1]; gene MRPL39) of the same compound?
The value was −2.20.
